The values that follow come from paper PMC3399817 (PLoS ONE, 2012).

For one test, the system named is HCT-116 (K-RAS^G13D/+). The experiment in a line: Cell viability (Syto60). The class given is cell-based. How it is done: (§1) All colon cancer cell lines were maintained in DMEM supplemented with penicillin (100 units/mL), streptomycin (100 μg/mL), and 10% fetal bovine serum (FBS). The rectal cancer cell line (Car1) was maintained in DMEM/F12 supplemented with penicillin (100 units/mL)/streptomycin (50 μg/mL), and 5% FBS. […] The target sequences for knockdowns can be found in Table S2. In drug treatment experiments, cells were plated for 24 hours prior to exposure to drug. AZ-628 was obtained from AstraZeneca. CI-1040 was obtained from Pfizer. R406 was synthesized in the Gray laboratory. BAY61-3606 and IKK VII were purchased from EMD Biosciences. BAY derivatives were synthesized for this study.
(§2) Cell cycle analysis was performed via FACS-based propidium iodide quantification, using standard methods. To measure cell viability, cells were grown in 96-well plates in the presence or absence of drug for 72 hours, fixed with 4% paraformaldehyde, and then stained with Syto60 (Invitrogen). Plates were imaged and quantified using the LiCor Odyssey system (LiCor).

The test system of test [1] is colorectal cancer cells expressing mutant B-RAF (V600E) (HT-29, RKO). The experiment in a line: Cell viability (Syto60). The class given is cell-based. To be noted: HT-29 and RKO, 72 hours. How it is done:
as §1, §2

For test [2], the system named is antigen-induced airway inflammation. Also on record: method as in PMID 12766258. To be noted: rats ref 14; cited from earlier work.
For test [3], the system named is panel of colorectal cancer cell lines. The experiment in a line: Cell viability (Syto60) in a panel of colorectal cancer cell lines. In kind it is cell-based. The conditions noted are these: 72 hours, 3 cell lines expressing wild-type K-RAS. How it is done:
as §2
Relative cell viability was normalized to an untreated control for each cell line. Error bars represent SEM for 3 independent experiments. […] (PDF) Click here for additional data file.

The target of a further test is T1, NEK3 (Homo sapiens, UniProt P51956).
T1 construct: purchased Ambit KINOMEscan (DiscoverX)
Nature of the test: KINOMEscan. The class given is binding. The conditions noted are these: NEK3, 1 uM. The gist of the method:
(§3)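 First-pass selectivity screen: compound at 1 μM, endpoint is whether substrate binding to each kinase is suppressed.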

For another test, the target named is T2, p38-delta (Homo sapiens, UniProt O15264).
T2 construct: purchased Ambit KINOMEscan (DiscoverX)
Nature of the test: KINOMEscan. The class given is binding. To be noted: 1 uM. The gist of the method:
as §3

The next test deals with T3, RET(M918T) (Homo sapiens, UniProt P07949, M918T).
T3 construct: purchased Ambit KINOMEscan (DiscoverX)
The experiment in a line: KINOMEscan. The class given is binding. The conditions noted are these: 1 uM. The gist of the method:
as §3

T3 sequence (P07949 29-1114 M918T): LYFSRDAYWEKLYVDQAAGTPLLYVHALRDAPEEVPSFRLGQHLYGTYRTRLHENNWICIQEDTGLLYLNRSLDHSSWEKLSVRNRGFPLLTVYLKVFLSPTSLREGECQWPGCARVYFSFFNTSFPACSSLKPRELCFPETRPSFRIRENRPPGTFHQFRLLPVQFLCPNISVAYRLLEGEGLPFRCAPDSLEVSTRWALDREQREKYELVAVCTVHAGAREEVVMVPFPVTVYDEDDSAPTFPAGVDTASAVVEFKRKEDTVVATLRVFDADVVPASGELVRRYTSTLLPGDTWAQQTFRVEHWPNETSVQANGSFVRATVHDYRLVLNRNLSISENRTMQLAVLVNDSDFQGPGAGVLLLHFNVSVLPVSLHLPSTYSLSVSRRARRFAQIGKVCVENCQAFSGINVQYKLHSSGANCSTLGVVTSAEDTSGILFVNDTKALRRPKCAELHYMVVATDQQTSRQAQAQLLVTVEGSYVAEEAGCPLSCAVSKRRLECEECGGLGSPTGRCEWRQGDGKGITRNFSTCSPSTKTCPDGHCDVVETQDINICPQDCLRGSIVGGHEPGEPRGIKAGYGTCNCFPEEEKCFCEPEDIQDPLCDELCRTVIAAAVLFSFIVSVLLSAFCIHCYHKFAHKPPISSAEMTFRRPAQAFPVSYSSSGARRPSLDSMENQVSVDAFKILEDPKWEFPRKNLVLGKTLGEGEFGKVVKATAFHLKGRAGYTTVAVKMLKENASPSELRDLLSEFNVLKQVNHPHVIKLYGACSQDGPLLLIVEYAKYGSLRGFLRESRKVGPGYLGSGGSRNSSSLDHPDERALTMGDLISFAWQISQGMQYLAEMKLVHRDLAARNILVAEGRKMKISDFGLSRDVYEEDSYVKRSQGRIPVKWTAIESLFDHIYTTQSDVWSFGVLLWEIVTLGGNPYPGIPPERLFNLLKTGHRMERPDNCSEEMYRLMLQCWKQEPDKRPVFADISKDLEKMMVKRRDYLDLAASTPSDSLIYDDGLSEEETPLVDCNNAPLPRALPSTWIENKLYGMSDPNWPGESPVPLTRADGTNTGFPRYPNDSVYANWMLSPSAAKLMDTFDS
T1 sequence (P51956 whole entry): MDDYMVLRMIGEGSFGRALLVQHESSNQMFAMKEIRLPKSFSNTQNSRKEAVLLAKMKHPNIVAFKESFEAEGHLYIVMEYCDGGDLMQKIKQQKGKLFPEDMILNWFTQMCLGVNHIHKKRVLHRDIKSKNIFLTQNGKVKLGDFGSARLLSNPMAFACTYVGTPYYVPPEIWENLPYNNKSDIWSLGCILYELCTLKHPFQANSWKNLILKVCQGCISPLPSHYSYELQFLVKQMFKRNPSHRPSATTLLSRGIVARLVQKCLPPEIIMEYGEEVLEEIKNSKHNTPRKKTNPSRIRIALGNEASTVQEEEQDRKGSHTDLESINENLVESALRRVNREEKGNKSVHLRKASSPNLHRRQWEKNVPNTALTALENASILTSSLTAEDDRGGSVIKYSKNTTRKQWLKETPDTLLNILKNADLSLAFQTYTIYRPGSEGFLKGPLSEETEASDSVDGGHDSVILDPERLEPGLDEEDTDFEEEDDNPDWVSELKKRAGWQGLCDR
T2 sequence (O15264 whole entry): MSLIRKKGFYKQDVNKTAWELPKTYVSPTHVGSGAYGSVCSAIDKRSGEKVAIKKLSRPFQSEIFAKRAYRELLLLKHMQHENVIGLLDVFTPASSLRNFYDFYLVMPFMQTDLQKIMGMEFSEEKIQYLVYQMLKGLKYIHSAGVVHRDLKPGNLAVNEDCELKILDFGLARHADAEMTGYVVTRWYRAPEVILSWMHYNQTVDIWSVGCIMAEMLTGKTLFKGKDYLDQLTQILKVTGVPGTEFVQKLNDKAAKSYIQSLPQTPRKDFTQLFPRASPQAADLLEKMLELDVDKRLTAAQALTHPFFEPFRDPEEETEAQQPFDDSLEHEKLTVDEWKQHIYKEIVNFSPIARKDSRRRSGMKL

As to `COc1ccc(-c2cc3nccn3c(Nc3ncccc3C(N)=O)n2)cc1OC.Cl.Cl` [BAY61-3606, 2-[7-(3,4-dimethoxyphenyl)-imidazo [1,2-c]pyrimidin-5-ylamino] nicotinamide dihydrochloride, reference compound], in the test with HCT-116 (K-RAS^G13D/+) (72 hours, HCT-116 compared to HKe-3, normalized to DMSO), the “sensitivity of cells expressing mutant K-RAS (cell viability)” value is reported as “relatively sensitive”. Moreover, the “cooperation with AZ-628 (cell viability)” value in the test with HCT-116 (K-RAS^G13D/+) (HCT-116, 72 hours, 1 µM AZ-628) was “did not cooperate”. For the same compound, the “cell viability, combination of BAY61-3606 and CI-1040” value in test [1] is “cooperated to produce an enhanced response”. Moreover, the “sensitivity of cells expressing mutant B-RAF (cell viability)” value in test [1] (single agent) is recorded as “sensitive”. Further, the antigen-induced airway inflammation entry in test [2] is listed as “suppresses”.
On to `COc1ccccc1Nc1nc(-c2ccc(OC)c(OC)c2)cc2nccn12` [BAY derivative 6], for which the “cell lines expressing wild-type K-RAS that responded” value in test [3] is 0/3. The entries for the “% binding compared to no inhibitor control” value at NEK3, on p38-delta and at RET(M918T) were 100%, 100% and 72%, respectively.
